Patent publication US20240208992A1, “MACROCYCLES AS CFTR MODULATORS” (Idorsia Pharmaceuticals Ltd, priority 2021, published 2024)

Target: human F508del-CFTR (Homo sapiens, UniProt P13569, DEL508-508)
Test: F508del-CFTR cell surface expression (corrector activity), DiscoveRx ß-galactosidase complementation chemiluminescence assay in recombinant U2OS cell line;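 further: U2OS cells co-expressing ProLink-tagged F508del-CFTR and a membrane-anchored enzyme acceptor, where more surface CFTR restores β-galactosidase activity measured by chemiluminescence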
Conditions: for EC50: EC50, F508del-CFTR cell surface expression, geomean values; for Emax: U2OS, arithmetic mean values
[1] = U2OS cells, 16h compound incubation
[2] = in relation to Emax of corrector lumacaftor (=100%)
[3] = U2OS cell line, 16h compound incubation
[4] = in relation to the Emax of the corrector lumacaftor (=100%), U2OS cell line, 16h compound incubation

Sequence of human F508del-CFTR (P13569 with tags, fused parts or gaps DEL508-508): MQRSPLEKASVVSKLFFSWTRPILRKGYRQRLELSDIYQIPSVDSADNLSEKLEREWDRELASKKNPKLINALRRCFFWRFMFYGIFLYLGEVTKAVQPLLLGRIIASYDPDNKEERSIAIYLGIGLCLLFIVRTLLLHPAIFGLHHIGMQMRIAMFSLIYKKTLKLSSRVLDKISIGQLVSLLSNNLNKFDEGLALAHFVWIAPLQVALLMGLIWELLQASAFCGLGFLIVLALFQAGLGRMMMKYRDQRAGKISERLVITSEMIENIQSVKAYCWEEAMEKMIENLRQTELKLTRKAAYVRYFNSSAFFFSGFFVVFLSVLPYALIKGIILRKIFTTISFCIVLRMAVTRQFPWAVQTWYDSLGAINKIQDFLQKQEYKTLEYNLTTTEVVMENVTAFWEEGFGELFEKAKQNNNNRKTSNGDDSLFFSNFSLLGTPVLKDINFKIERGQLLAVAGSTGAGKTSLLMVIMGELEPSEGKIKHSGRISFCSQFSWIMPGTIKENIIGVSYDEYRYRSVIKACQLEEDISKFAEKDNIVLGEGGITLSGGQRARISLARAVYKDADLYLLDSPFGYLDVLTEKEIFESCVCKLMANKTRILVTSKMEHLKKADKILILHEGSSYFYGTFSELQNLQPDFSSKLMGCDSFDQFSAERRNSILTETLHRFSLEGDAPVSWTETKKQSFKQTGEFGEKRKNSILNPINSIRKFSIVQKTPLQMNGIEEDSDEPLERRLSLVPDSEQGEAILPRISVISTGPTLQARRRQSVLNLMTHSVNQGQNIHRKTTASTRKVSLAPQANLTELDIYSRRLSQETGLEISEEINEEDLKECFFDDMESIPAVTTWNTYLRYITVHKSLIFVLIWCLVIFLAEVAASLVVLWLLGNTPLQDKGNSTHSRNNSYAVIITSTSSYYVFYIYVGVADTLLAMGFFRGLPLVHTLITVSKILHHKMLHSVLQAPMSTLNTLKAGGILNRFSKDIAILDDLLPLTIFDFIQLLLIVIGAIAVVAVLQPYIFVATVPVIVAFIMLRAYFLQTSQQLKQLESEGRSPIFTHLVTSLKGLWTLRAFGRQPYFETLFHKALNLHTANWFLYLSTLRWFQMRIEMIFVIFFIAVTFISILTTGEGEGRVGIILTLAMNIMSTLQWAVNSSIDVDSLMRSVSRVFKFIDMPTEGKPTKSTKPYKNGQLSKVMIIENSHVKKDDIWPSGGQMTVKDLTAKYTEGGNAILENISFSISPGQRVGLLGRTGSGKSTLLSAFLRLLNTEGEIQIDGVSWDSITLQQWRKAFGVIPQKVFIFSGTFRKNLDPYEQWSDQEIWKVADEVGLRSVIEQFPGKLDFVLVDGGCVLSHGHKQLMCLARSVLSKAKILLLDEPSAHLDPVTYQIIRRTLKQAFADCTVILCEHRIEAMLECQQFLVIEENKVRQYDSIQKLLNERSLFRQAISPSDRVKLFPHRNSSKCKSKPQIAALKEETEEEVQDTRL

SMILES | EC50 [1] [nM] | Emax [2] [%] | EC50 [3] [nM] | Emax [4] [%]
COc1cccc(CCNC(=O)[C@@H]2CC(=O)N(C)[C@@H](CC(C)C)C(=O)N(C)C3(CC3)C(=O)N[C@H](Cc3ccccc3)COc3ccc4cccnc4c3C(=O)N2)c1 [Example 471, (9′R,15′S,19′S)-9′-benzyl-15′-isobutyl-N-(3-methoxyphenethyl)-13′,16′-dimethyl-11′,14′,17′,21′-tetraoxo-8′,9′,10′,11′,14′,15′,16′,17′,18′,19′,20′,21′-dodecahydro-13′H-spiro[cyclopropane-1,12′-[1]oxa[4,7,10,14]tetraazacycloheptadecino[17,16-h]quinoline]-19′-carboxamide] | 981 | 278 |  | 
COc1cccc(CCNC(=O)[C@@H]2CC(=O)N(C)[C@@H](CC(C)C)C(=O)N(C)C3(CC3)C(=O)N[C@H](Cc3ccccc3)COc3ccc4cc(C)oc4c3C(=O)N2)c1 [Example 551, (8R,14S,18S)-8-benzyl-14-isobutyl-N-(3-methoxyphenethyl)-2,12,15-trimethyl-10,13,16,20-tetraoxo-7,8,9,10,13,14,15,16,17,18,19,20-dodecahydro-12H-spiro[benzofuro[7,6-p][1]oxa[4,7,10,14]tetraazacycloheptadecine-11,1′-cyclopropane]-18-carboxamide] | 222 | 317 |  | 
COc1cccc(CCNC(=O)[C@@H]2CC(=O)N(C)[C@@H](CC(C)C)C(=O)N(C)C3(CC3)C(=O)N[C@H](Cc3ccccc3)COc3cnc4ccc(F)cc4c3C(=O)N2)c1 [Example 131, (3′S,7′S,13′R)-13′-benzyl-20′-fluoro-7′-isobutyl-N-(3-methoxyphenethyl)-6′,9′-dimethyl-1′,5′,8′,11′-tetraoxo-2′,3′,4′,5′,6′,7′,8′,9′,11′,12′,13′,14′-dodecahydro-1′H-spiro[cyclopropane-1,10′-[1]oxa[4,7,10,14]tetraazacycloheptadecino[17,16-c]quinoline]-3′-carboxamide] |  |  | 127 | 320
COc1cccc(CCNC(=O)[C@@H]2CC(=O)N(C)[C@@H](CC(C)C)C(=O)N(C)C3(CC3)C(=O)N[C@H](Cc3ccccc3)COc3ccc(OC)nc3C(=O)N2)c1 [Example 488, (3′R,9′S,13′S)-3′-benzyl-9′-isobutyl-17′-methoxy-N-(3-methoxyphenethyl)-7′,10′-dimethyl-5′,8′,11′,15′-tetraoxo-2′,3′,4′,5′,8′,9′,10′,11′,12′,13′,14′,15′-dodecahydro-7′H-spiro[cyclopropane-1,6′-pyrido[2,3-p][1]oxa[4,7,10,14]tetraazacycloheptadecine]-13′-carboxamide] | 910 | 270 |  | 
CCOc1cccc(CCNC(=O)[C@@H]2CC(=O)N(C)[C@@H](CC(C)C)C(=O)N3CCN(CC4CC4)C[C@@H]3C(=O)N[C@H](Cc3ccccc3)COc3ccc4nc(C)oc4c3C(=O)N2)c1 [Example 427, (8S,12S,18aR,21R)-21-benzyl-17-(cyclopropylmethyl)-N-(3-ethoxyphenethyl)-12-isobutyl-4,11-dimethyl-6,10,13,19-tetraoxo-6,7,8,9,10,11,12,13,16,17,18,18a,19,20,21,22-hexadecahydro-15H-oxazolo[4′,5′:5,6]benzo[1,2-p]pyrazino[2,1-f][1]oxa[4,7,10,14]tetraazacycloheptadecine-8-carboxamide] | 248 | 274 |  | 
Cc1cc(CCNC(=O)[C@@H]2CC(=O)N(C)[C@@H](CC(C)C)C(=O)N3CCCC[C@@H]3C(=O)N[C@H](Cc3ccccc3)COc3cnc4ccc(F)cc4c3C(=O)N2)on1 [Example 480, (9S,13S,19aR,22R)-22-benzyl-5-fluoro-13-isobutyl-12-methyl-N-(2-(3-methylisoxazol-5-yl)ethyl)-7,11,14,20-tetraoxo-7,8,9,10,11,12,13,14,17,18,19,19a,20,21,22,23-hexadecahydro-16H-pyrido[2′,11:6,7][1]oxa[4,7,10,14]tetraazacycloheptadecino[17,16-c]quinoline-9-carboxamide] | 201 | 276 |  | 
Cc1cc(CCNC(=O)[C@@H]2CC(=O)N(C)[C@@H](CC(C)C)C(=O)N(C)C3(CC3)C(=O)N[C@H](Cc3ccccc3)COc3cnc4ccc(F)cc4c3C(=O)N2)no1 [Example 141, (3′S,7′S,13′R)-13′-benzyl-20′-fluoro-7′-isobutyl-6′,9′-dimethyl-N-(2-(5-methylisoxazol-3-yl)ethyl)-1′,5′,8′,11′-tetraoxo-2′,3′,4′,5′,6′,7′,8′,9′,11′,12′,13′,14′-dodecahydro-1′H-spiro[cyclopropane-1,10′-[1]oxa[4,7,10,14]tetraazacycloheptadecino[17,16-c]quinoline]-3′-carboxamide] |  |  | 313 | 331
[2H]C([2H])([2H])Oc1cccc(CCNC(=O)[C@@H]2CC(=O)N(C)[C@@H](CC(C)C)C(=O)N(CCC3CCCCC3)CC(=O)N[C@H](Cc3ccccc3)COc3ccc4c(c3C(=O)N2)OCO4)c1 [Example 347, (8R,14S,18S)-8-benzyl-12-(2-cyclohexylethyl)-14-isobutyl-N-(3-(methoxy-d3)phenethyl)-15-methyl-10,13,16,20-tetraoxo-7,8,9,10,11,12,13,14,15,16,17,18,19,20-tetradecahydro-[1,3]dioxolo[4′,5′:5,6]benzo[1,2-p][1]oxa[4,7,10,14]tetraazacycloheptadecine-18-carboxamide] |  |  | 131 | 282
CCOC(=O)N1CCN2C(=O)[C@H](CC(C)C)N(C)C(=O)C[C@@H](C(=O)NCCc3cccc(OC)c3)NC(=O)c3c(ccc4ccccc34)OC[C@@H](Cc3ccccc3)NC(=O)[C@H]2C1 [Example 755, ethyl (4aR,7R,18S,22S)-7-benzyl-22-isobutyl-18-((3-methoxyphenethyl)carbamoyl)-21-methyl-5,16,20,23-tetraoxo-1,2,4,4a,5,6,7,8,16,17,18,19,20,21,22,23-hexadecahydro-3H-naphtho[1,2-p]pyrazino[2,1-f][1]oxa[4,7,10,14]tetraazacycloheptadecine-3-carboxylate] | 168 | 270 |  | 
CC(C)C[C@H]1C(=O)N(C)C2(CC2)C(=O)N[C@H](Cc2ccccc2)COc2cnc3ccc(F)cc3c2C(=O)N[C@H](C(=O)NCCc2cnn(C)c2)CC(=O)N1C [Example 143, (3′S,7′S,13′R)-13′-benzyl-20′-fluoro-7′-isobutyl-6′,9′-dimethyl-N-(2-(1-methyl-1H-pyrazol-4-yl)ethyl)-1′,5′,8′,11′-tetraoxo-2′,3′,4′,5′,6′,7′,8′,9′,11′,12′,13′,14′-dodecahydro-1′H-spiro[cyclopropane-1,10′-[1]oxa[4,7,10,14]tetraazacycloheptadecino[17,16-c]quinoline]-3′-carboxamide] |  |  | 922 | 320
COc1cccc(CCNC(=O)[C@@H]2CC(=O)N(C)[C@@H](CC(C)C)C(=O)N3CCN(C4CC4)C[C@H]3C(=O)N[C@H](Cc3ccccc3)COc3cnc4ccccc4c3C(=O)N2)c1 [Example 388, (9S,13S,19aS,22R)-22-benzyl-18-cyclopropyl-13-isobutyl-N-(3-methoxyphenethyl)-12-methyl-7,11,14,20-tetraoxo-7,8,9,10,11,12,13,14,17,18,19,19a,20,21,22,23-hexadecahydro-16H-pyrazino[2′,11:6,7][1]oxa[4,7,10,14]tetraazacycloheptadecino[17,16-c]quinoline-9-carboxamide] |  |  | 310 | 163
Cc1ccc(CCNC(=O)[C@@H]2CC(=O)N(C)[C@@H](CC(C)C)C(=O)N3CCOC[C@@H]3C(=O)N[C@H](Cc3ccccc3)COc3cnc4ccccc4c3C(=O)N2)cc1C [Example 61, (9S,13S,19aR,22R)-22-benzyl-N-(3,4-dimethylphenethyl)-13-isobutyl-12-methyl-7,11,14,20-tetraoxo-7,8,9,10,11,12,13,14,16,17,19,19a,20,21,22,23-hexadecahydro-[1,4]oxazino[3′,4′:6,7][1]oxa[4,7,10,14]tetraazacycloheptadecino[17,16-c]quinoline-9-carboxamide] |  |  | 421 | 202
COc1nc(C)cc2c1C(=O)N[C@H](C(=O)NCCc1noc(C3CC3)n1)CC(=O)N(C)[C@@H](CC(C)C)C(=O)N1CCCC[C@@H]1C(=O)N[C@H](Cc1ccccc1)CO2 [Example 567, (7S,11S,17aR,20R)-20-benzyl-N-(2-(5-cyclopropyl-1,2,4-oxadiazol-3-yl)ethyl)-11-isobutyl-4-methoxy-2,10-dimethyl-5,9,12,18-tetraoxo-5,6,7,8,9,10,11,12,15,16,17,17a,18,19,20,21-hexadecahydro-14H-dipyrido[2,1-f:3′,4′-p][1]oxa[4,7,10,14]tetraazacycloheptadecine-7-carboxamide] | 384 | 307 |  | 
COc1cc(CCNC(=O)[C@@H]2CC(=O)N(C)[C@@H](CC(C)C)C(=O)N3CCC4(CC4)C[C@H]3C(=O)N[C@H](Cc3ccccc3)COc3cc(C)nc(OC)c3C(=O)N2)on1 [Example 684, (7′S,11′S,17a′S,20′R)-20′-benzyl-11′-isobutyl-4′-methoxy-N-(2-(3-methoxyisoxazol-5-yl)ethyl)-2′,10′-dimethyl-5′,9′,12′,18′-tetraoxo-5′,6′,7′,8′,9′,10′,11′,12′,14′,15′,17′,17a′,18′,19′,20′,21′-hexadecahydrospiro[cyclopropane-1,16′-dipyrido[2,1-f:3′,4′-p][1]oxa[4,7,10,14]tetraazacycloheptadecine]-7′-carboxamide] | 986 | 235 |  | 
COc1cccc2c1C(=O)N[C@H](C(=O)NCCc1ccc3c(c1)OCO3)CC(=O)N(C)[C@@H](CC(C)C)C(=O)N(C[C@H]1CCCCO1)CC(=O)N[C@H](Cc1ccccc1)CO2 [Example 305, (3R,9S,13S)-N-(2-(benzo[d][1,3]dioxol-5-yl)ethyl)-3-benzyl-9-isobutyl-16-methoxy-10-methyl-5,8,11,15-tetraoxo-7-(((R)-tetrahydro-2H-pyran-2-yl)methyl)-2,3,4,5,6,7,8,9,10,11,12,13,14,15-tetradecahydrobenzo[p][1]oxa[4,7,10,14]tetraazacycloheptadecine-13-carboxamide] |  |  | 533 | 123
